Source: patent US4965280A, “Antifungal carbinols” (E. I. Du Pont de Nemours and Company, priority 1989, dated 1990)
Values after ≈ are worked out from the molar mass of the structure shown.

Legend:
[1] = system: Fusarium oxysporum f. sp. cucumerinum; test: Example L cucumber wilt; format: in vivo; conditions: 336 h, 5 kg/ha, read-out: disease control rating, Ex. L
Description: […] Seeds and soil were then inoculated with a mixture of sand, cereal and mycelium of the fungus Fusarium oxysporum f. sp. cucumerinum, causal agent of cucumber wilt, and incubated in a growth chamber at 30° C. for 14 days. Disease ratings were then made.

ARROWHEAD = test: Test C rice paddy; format: in vivo, Sagittaria spp.; conditions: Sagittaria, 504 h, 21 days, read-out: plant response; for pest or weed control at 64 g/ha: 0064 G/HA; for pest or weed control at 125 g/ha: 0125 G/HA; for pest or weed control at 250 g/ha: 0250 G/HA; for pest or weed control at 500 g/ha: 0500 G/HA
From the text: (§1) Sixteen cm diameter Airlite plastic pots were partially filled with Tama slit loam soil and the soil saturated with water. Japonica and Indica rice seedlings a the 2.0 to 2.5 leaf stage were transplanted into 1/3 of the pots. Into another third of the pots were transplanted seedling or sprouted tubers of water plantain (Alisma trivale), Scripus (Scirpus paludosus), Cyperus (Cyperus esculentus), and arrowhead (Sagittaria spp.). The remaining pots were planted with barnyardgrass (Echinochloa crusgalli) seeds and sprouted tubes of water chestnut (Eleocharis spp.). These weeds all represent major rice weeds or genera of weeds important in rice. Three to four days after planting, the water level was raised to 3 cm (about 1200 ml/pot) and maintained a this level throughout the test. Chemical treatments were applied directly to the paddy water, within 24 hours of raising the water, after being formulated in a nonphytotoxic solvent. The pots were maintained in the greenhouse.

Botrytis cinerea = test: Example C bean grey mold; format: in vivo; conditions: Botrytis cinerea, 24 h, 100 PPM; read-out: disease control rating, Ex. C
Procedure, shortened: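 Broad bean seedlings; foliar spray to run-off. Cmpd 100 or 20 ppm in water + 250 ppm TREM 014, acetone 6% v/v final.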

Plasmorpara viticola = test: Example I grape downy mildew; format: in vivo; conditions: read-out: disease control rating, Ex. I
Procedure, shortened: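 Compounds were dissolved in acetone (6% of final volume) and suspended at 100 or 20 ppm in purified water with 250 ppm TREM 014 surfactant (polyhydric alcohol esters). Grape seedlings were sprayed with this suspension to run-off.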

[2] = system: Aspergillus fumigatus ATCC 28214; test: In vitro antifungal MIC, microtiter broth dilution; conditions: Aspergillus fumigatus, ATCC28214, 24 h, read-out: MIC values, A. fumigatus, 30°, 24 hours
RICE JAP EFF = test: Test C rice paddy; format: in vivo, Japonica rice; conditions: Oryza sativa, 504 h, 21 days, read-out: plant response; for pest or weed control at 64 g/ha: 0064 G/HA; for pest or weed control at 125 g/ha: 0125 G/HA; for pest or weed control at 250 g/ha: 0250 G/HA; for pest or weed control at 500 g/ha: 0500 G/HA
From the text: as §1

[3] = system: Erysiphe graminis f. sp. tritici; test: Example D wheat powdery mildew; format: in vivo; conditions: Blumeria graminis, 144 h; 100 PPM; read-out: disease control rating, Ex. D
Procedure, shortened: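 Spray to run-off on wheat seedlings; test suspension 100 or 20 ppm compound, acetone 6% v/v, 250 ppm polyhydric alcohol ester surfactant in water.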

WATER PLAINTAIN = test: Test C rice paddy; format: in vivo, Alisma trivale; conditions: 504 h, 21 days, read-out: plant response; for pest or weed control at 64 g/ha: 0064 G/HA; for pest or weed control at 125 g/ha: 0125 G/HA; for pest or weed control at 250 g/ha: 0250 G/HA; for pest or weed control at 500 g/ha: 0500 G/HA
From the text: as §1

Phytophthora infestans = test: whole plant or invertebrate; format: in vivo; conditions: Phytophthora infestans, in Solanum lycopersicum, read-out: disease control rating, Ex. H, 100 PPM
Puccinia recondita = test: Example G wheat leaf rust; format: in vivo; conditions: 100 PPM, read-out: disease control rating, Ex. G
Pyricularia oryzae = test: whole plant or invertebrate; format: in vivo; conditions: Pyricularia oryzae, 120 h, read-out: disease control rating, Ex. E, 100 PPM
RICE INDICA EFF = test: Test C rice paddy; format: in vivo; conditions: Oryza sativa, 504 h, 21 days, read-out: plant response; for pest or weed control at 64 g/ha: 0064 G/HA; for pest or weed control at 125 g/ha: 0125 G/HA; for pest or weed control at 250 g/ha: 0250 G/HA; for pest or weed control at 500 g/ha: 0500 G/HA
From the text: as §1

[4] = system: Cercosporidium personatum; test: Example B Peanut Late Leafspot; format: in vivo; conditions: Nothopassalora personata; 100 PPM; read-out: disease control rating, Ex. B
Procedure, shortened: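 Foliar spray on peanut seedlings, to run-off; test rates 100 or 20 ppm. Formulation: acetone at 6% of final volume, water with 250 ppm polyhydric alcohol ester surfactant.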

WATERCHESTNUT = test: Test C rice paddy; format: in vivo, Eleocharis spp.; conditions: Eleocharis, 504 h, 21 days, read-out: plant response; for pest or weed control at 64 g/ha: 0064 G/HA; for pest or weed control at 125 g/ha: 0125 G/HA; for pest or weed control at 250 g/ha: 0250 G/HA; for pest or weed control at 500 g/ha: 0500 G/HA
From the text: as §1

Venturia inaequalis = test: Example A apple scab; format: in vivo; conditions: 100 PPM, read-out: disease control rating, Ex. A
Procedure, shortened: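 Acetone solution (6% of final vol.) → suspension at 100 or 20 ppm in water + 250 ppm TREM 014 surfactant; sprayed to run-off on apple seedlings.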

BARNYARDGRASS = test: Test C rice paddy; format: in vivo, Echinochloa crusgalli; conditions: Echinochloa crus-galli, 504 h, 21 days, read-out: plant response; for pest or weed control at 64 g/ha: 0064 G/HA; for pest or weed control at 125 g/ha: 0125 G/HA; for pest or weed control at 250 g/ha: 0250 G/HA; for pest or weed control at 500 g/ha: 0500 G/HA
From the text: as §1

Sclerotium rolfsii = test: Example M southern blight; format: in vivo; conditions: Agroathelia rolfsii, 336 h; 5 kg/ha; read-out: disease control rating, Ex. M
Description: […] Seeds and soil were then inoculated with a mixture of sand, cereal and mycelium of the fungus Sclerotium rolfsii, causal agent of sourthern blight, and incubated in a growth chamber at 30° C. for 14 days. Disease ratings were then made.

Compound | pest or weed control at 5000 g/ha [1] | pest or weed control at 64 g/ha (ARROWHEAD) | pest or weed control at 125 g/ha (ARROWHEAD) | pest or weed control at 250 g/ha (ARROWHEAD) | pest or weed control at 500 g/ha (ARROWHEAD) | pest or weed control at 1000 g/ha (ARROWHEAD) | pest or weed control at 100 ppm (Botrytis cinerea) | pest or weed control at 100 ppm (Plasmorpara viticola) | pest or weed control at 64 g/ha (RICE JAP EFF) | pest or weed control at 125 g/ha (RICE JAP EFF) | pest or weed control at 250 g/ha (RICE JAP EFF) | pest or weed control at 500 g/ha (RICE JAP EFF) | pest or weed control at 1000 g/ha (RICE JAP EFF) | pest or weed control at 100 ppm [3] | pest or weed control at 64 g/ha (WATER PLAINTAIN) | pest or weed control at 125 g/ha (WATER PLAINTAIN) | pest or weed control at 250 g/ha (WATER PLAINTAIN) | pest or weed control at 500 g/ha (WATER PLAINTAIN) | pest or weed control at 1000 g/ha (WATER PLAINTAIN) | pest or weed control at 100 ppm (Phytophthora infestans) | further results
C=C(c1ccccc1)C(O)(Cn1cncn1)c1ccc(Cl)cc1Cl (stereo not drawn) [Example 50, 2-(2,4-Dichlorophenyl)-3-phenyl-1-(1H-1,2,4-triazol-1-yl)-3-buten-2-ol] | 0% | 0% | 0% | 0% | 30% | 50% | 98% | 46% | 0% | 0% | 30% | 60% | 70% | 95% | 0% | 0% | 0% | 0% | 0% | 0% | MIC [2]: 0.8 mg/L (≈ 2.22 µM); pest or weed control at 100 ppm (Puccinia recondita): 100%; pest or weed control at 100 ppm (Pyricularia oryzae): 86%; pest or weed control at 64 g/ha (RICE INDICA EFF): 0%; pest or weed control at 125 g/ha (RICE INDICA EFF): 40%; pest or weed control at 250 g/ha (RICE INDICA EFF): 30%; pest or weed control at 500 g/ha (RICE INDICA EFF): 70%; pest or weed control at 1000 g/ha (RICE INDICA EFF): 80%; pest or weed control at 100 ppm [4]: 100%; pest or weed control at 64 g/ha (WATERCHESTNUT): 0%; pest or weed control at 125 g/ha (WATERCHESTNUT): 0%; pest or weed control at 250 g/ha (WATERCHESTNUT): 0%; pest or weed control at 500 g/ha (WATERCHESTNUT): 0%; pest or weed control at 1000 g/ha (WATERCHESTNUT): 0%; pest or weed control at 100 ppm (Venturia inaequalis): 100%; pest or weed control at 64 g/ha (BARNYARDGRASS): 0%; pest or weed control at 125 g/ha (BARNYARDGRASS): 0%; pest or weed control at 250 g/ha (BARNYARDGRASS): 60%; pest or weed control at 500 g/ha (BARNYARDGRASS): 70%; pest or weed control at 1000 g/ha (BARNYARDGRASS): 70%
C=C(c1ccc(F)cc1)C(O)(Cn1ncnc1S)c1ccc(F)cc1F (stereo not drawn) [Example 1304] | 0% | 0% | 0% | 0% | 0% | 30% | 97% | 18% | 0% | 0% | 0% | 0% | 40% | 100% | 0% | 0% | 0% | 0% | 65% | 0% | pest or weed control at 100 ppm (Puccinia recondita): 100%; pest or weed control at 100 ppm (Pyricularia oryzae): 78%; pest or weed control at 64 g/ha (RICE INDICA EFF): 0%; pest or weed control at 125 g/ha (RICE INDICA EFF): 0%; pest or weed control at 250 g/ha (RICE INDICA EFF): 0%; pest or weed control at 500 g/ha (RICE INDICA EFF): 0%; pest or weed control at 1000 g/ha (RICE INDICA EFF): 40%; pest or weed control at 100 ppm [4]: 100%; pest or weed control at 64 g/ha (WATERCHESTNUT): 0%; pest or weed control at 125 g/ha (WATERCHESTNUT): 0%; pest or weed control at 250 g/ha (WATERCHESTNUT): 0%; pest or weed control at 500 g/ha (WATERCHESTNUT): 0%; pest or weed control at 1000 g/ha (WATERCHESTNUT): 50%; pest or weed control at 100 ppm (Venturia inaequalis): 100%; pest or weed control at 64 g/ha (BARNYARDGRASS): 85%; pest or weed control at 125 g/ha (BARNYARDGRASS): 100%; pest or weed control at 250 g/ha (BARNYARDGRASS): 100%; pest or weed control at 500 g/ha (BARNYARDGRASS): 98%; pest or weed control at 1000 g/ha (BARNYARDGRASS): 100%; pest or weed control at 5000 g/ha (Sclerotium rolfsii): 0%
C=C(c1ccc(F)cc1)C(O)(Cn1ncnc1I)c1ccc(F)cc1F (stereo not drawn) [Example 1381] | 0% | 0% | 0% | 0% | 0% | 0% | 97% | 78% | 0% | 0% | 20% | 40% | 60% | 98% | 0% | 0% | 0% | 0% | 0% | 0% | pest or weed control at 100 ppm (Puccinia recondita): 100%; pest or weed control at 100 ppm (Pyricularia oryzae): 51%; pest or weed control at 64 g/ha (RICE INDICA EFF): 0%; pest or weed control at 125 g/ha (RICE INDICA EFF): 0%; pest or weed control at 250 g/ha (RICE INDICA EFF): 20%; pest or weed control at 500 g/ha (RICE INDICA EFF): 40%; pest or weed control at 1000 g/ha (RICE INDICA EFF): 60%; pest or weed control at 100 ppm [4]: 100%; pest or weed control at 64 g/ha (WATERCHESTNUT): 0%; pest or weed control at 125 g/ha (WATERCHESTNUT): 0%; pest or weed control at 250 g/ha (WATERCHESTNUT): 0%; pest or weed control at 500 g/ha (WATERCHESTNUT): 0%; pest or weed control at 1000 g/ha (WATERCHESTNUT): 0%; pest or weed control at 100 ppm (Venturia inaequalis): 100%; pest or weed control at 64 g/ha (BARNYARDGRASS): 55%; pest or weed control at 125 g/ha (BARNYARDGRASS): 55%; pest or weed control at 250 g/ha (BARNYARDGRASS): 60%; pest or weed control at 500 g/ha (BARNYARDGRASS): 100%; pest or weed control at 1000 g/ha (BARNYARDGRASS): 100%; pest or weed control at 5000 g/ha (Sclerotium rolfsii): 0%
